This experiment concerns the target T1, human SGLT2 (Homo sapiens, UniProt P31639).
T1 construct: expressed in transfected cells
T1 sequence (P31639 1-672): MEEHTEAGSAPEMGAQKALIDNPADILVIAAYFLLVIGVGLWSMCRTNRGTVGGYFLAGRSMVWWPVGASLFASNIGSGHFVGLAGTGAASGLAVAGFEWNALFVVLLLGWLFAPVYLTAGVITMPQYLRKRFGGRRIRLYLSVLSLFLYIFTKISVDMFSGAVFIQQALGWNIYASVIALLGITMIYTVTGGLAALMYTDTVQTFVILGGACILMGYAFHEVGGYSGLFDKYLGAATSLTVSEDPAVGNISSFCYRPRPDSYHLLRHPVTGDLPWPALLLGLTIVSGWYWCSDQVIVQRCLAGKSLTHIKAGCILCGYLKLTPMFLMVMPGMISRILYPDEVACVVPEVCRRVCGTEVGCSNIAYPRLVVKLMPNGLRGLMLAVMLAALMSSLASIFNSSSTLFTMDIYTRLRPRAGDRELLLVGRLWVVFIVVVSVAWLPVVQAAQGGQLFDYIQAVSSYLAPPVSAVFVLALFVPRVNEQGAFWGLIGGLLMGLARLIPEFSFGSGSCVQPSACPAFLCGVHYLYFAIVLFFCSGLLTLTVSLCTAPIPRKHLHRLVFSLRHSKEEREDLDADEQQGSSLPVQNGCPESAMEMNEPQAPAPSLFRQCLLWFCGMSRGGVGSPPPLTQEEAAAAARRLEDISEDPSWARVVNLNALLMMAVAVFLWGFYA
The experiment can be described thus: Assay for inhibitory effects on human SGLT2 activity (uptake of methyl-α-D-glucopyranoside in CS2-5E cells). The settings on record: inhibition of 14C-labeled α-MG uptake (1 mM), CHO-K1 cells stably expressing human SGLT2 (CS2-5E), 37° C., 1 hour. Type of experiment: cell-based. On the procedure: Assay for Inhibitory Effects on Human SGLT2 Activity 1) Cloning and Construction of the Vector Expressing Human SGLT2 The cDNA library was prepared for PCR amplification by reverse transcription from total RNA deprived from human kidney (Ori gene) using oligo-dT as a primer. Using this cDNA library as a template, the DNA fragment coding 2 to 2039 bp of human SGLT2 (ACCESSION: M95549, M95299), which was reported by R. G. Wells et al., was amplified by PCR method and inserted into the multi-cloning site of pcDNA3.1 (−) (Invitrogen). The DNA sequence inserted was perfectly matched to the previously reported sequence. 2) Establishment of Cell Line Stably Expressing Human SGLT2 The expression vector of human SGLT2 was digested by Sca I into a linear DNA. The linear DNA was transfected into CHO-K1 cells by means of lipofection (Effectene Transfection Reagent: QIAGEN). Neomycin resistant cell lines were selected by culture in the medium containing G418 (1 mg/mL, LIFE TECHNOLOGIES), and then the activity against the uptake of methyl-α-D-glucopyranoside was measured by the method described below. […] Radioactivity was measured by means of micro-scintillation counter TopCount (Packard). One hundred % was set to the difference between the uptake in the control group and the basal uptake, and the uptake of methyl α-D-glucopyranoside at each drug concentration were calculated. […]

This passage reports IC50 results from patent publication US20070185197A1, “Phenol derivative, medicinal composition containing the same, and medicinal use thereof” (priority 2004, published 2007).

Usually IC50 stands for the midpoint of a concentration-inhibition curve. Lower therefore signals greater potency in that assay.

As to `COc1ccc(Cc2ccccc2O[C@@H]2O[C@H](CF)[C@@H](O)[C@H](O)[C@H]2O)cc1` [Example 1, 2-(4-Methoxybenzyl)phenyl 6-deoxy-6-fluoro-β-D-glucopyranoside], the IC50 was determined as 86 nM.
